Laboratory results reported in patent US7378494B2, “Pituitary adenylate cyclase activating peptide (PACAP) receptor (VPAC2) agonist peptide” (Bayer HealthCare AG, priority 2002, dated 2008).

Molecular target: T1, VPAC1 (Homo sapiens, UniProt P32241)
T1 sequence (P32241 31-457): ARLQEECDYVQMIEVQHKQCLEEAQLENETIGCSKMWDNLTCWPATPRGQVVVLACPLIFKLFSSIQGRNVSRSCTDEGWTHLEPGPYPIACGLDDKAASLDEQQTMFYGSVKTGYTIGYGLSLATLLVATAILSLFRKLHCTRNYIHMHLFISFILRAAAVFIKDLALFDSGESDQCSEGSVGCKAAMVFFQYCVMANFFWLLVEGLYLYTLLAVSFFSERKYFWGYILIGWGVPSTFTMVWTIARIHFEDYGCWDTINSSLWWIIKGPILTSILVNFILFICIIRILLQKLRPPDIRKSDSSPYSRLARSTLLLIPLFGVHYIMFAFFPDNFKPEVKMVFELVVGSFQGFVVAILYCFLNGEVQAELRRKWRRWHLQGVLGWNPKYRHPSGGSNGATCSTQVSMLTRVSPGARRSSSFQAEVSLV
Experiment: Cyclic AMP SPA, cells expressing VPAC1
Format: cell-based

agonist activity on VPAC1 (in words): potent agonist
Substance: PACAP-27
